Measurements: US20230117034A1, “PYRAZOLOTRIAZINES” (Bayer Aktiengesellschaft, priority 2019, published 2023)

Assays:
CDK9/CycT1 = biological target: T1, CDK9/CycT1 (Homo sapiens, UniProt P50750); experiment: CDK9/CycT1 high ATP kinase assay (TR-FRET, 2 mM ATP); type: biochemical; conditions: 2 mM ATP (high ATP); median; read-out: CDK9/CyclinT1, 2 mM ATP (high ATP), IC50 (median)
T1 construct: Recombinant full-length His-tagged human CDK9 and CycT1; purchased Life Technologies PV4131; host or cells: insect cells
Procedure, shortened: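 Full-length His-tagged human CDK9/CycT1 (insect cell, ~0.5 μg/mL) preincubated 15 min at 22 °C with compound in Tris pH 8.0, MgCl2, DTT buffer before reaction with biotinylated peptide substrate at high ATP (2 mM).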

CDK12/CycK = CDK12/CycK (Homo sapiens, UniProt Q9NYV4); experiment: CDK12/CycK high ATP kinase assay (TR-FRET, 2 mM ATP); type: biochemical; conditions: 2 mM ATP (high ATP); median; read-out: CDK12/CyclinK, 2 mM ATP (high ATP), IC50-[mol/l] (median)
Procedure, shortened: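 His-tagged human CDK12/CycK (~0.75 nM) pre-incubated 15 min with compound, then 60 min at 22 °C with 2 mM ATP and 1 µM biotinylated peptide (HEPES pH 7.5, 20 mM MgCl2). EDTA stop; phospho-Ser62 antibody/Eu anti-rabbit and streptavidin-XL665 TR-FRET, 665/620 nm ratio normalised to give IC50.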

Sequence of CDK12/CycK (Q9NYV4 with tags, fused parts or gaps): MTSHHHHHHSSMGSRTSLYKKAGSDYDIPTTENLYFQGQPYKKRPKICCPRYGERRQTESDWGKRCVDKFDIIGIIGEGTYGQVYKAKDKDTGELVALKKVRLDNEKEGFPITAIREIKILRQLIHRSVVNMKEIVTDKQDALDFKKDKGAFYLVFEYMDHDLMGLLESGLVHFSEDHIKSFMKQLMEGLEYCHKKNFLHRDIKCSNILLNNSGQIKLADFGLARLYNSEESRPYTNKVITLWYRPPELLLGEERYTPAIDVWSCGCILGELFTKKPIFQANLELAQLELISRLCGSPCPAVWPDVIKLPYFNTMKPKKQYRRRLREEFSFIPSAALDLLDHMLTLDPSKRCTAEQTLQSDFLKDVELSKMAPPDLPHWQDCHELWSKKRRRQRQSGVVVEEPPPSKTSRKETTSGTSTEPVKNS
Sequence of CDK12/CycK (O75909 1-300 partner limits assumed): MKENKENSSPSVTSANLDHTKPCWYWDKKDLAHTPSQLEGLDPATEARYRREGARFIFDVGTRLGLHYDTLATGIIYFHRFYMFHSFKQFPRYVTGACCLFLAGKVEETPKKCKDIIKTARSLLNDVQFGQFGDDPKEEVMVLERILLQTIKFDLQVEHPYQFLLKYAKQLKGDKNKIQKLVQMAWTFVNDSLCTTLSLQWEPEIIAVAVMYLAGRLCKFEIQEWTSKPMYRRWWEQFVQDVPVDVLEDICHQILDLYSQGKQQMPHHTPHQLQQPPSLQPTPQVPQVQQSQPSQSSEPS
T1 sequence (P50750 whole entry): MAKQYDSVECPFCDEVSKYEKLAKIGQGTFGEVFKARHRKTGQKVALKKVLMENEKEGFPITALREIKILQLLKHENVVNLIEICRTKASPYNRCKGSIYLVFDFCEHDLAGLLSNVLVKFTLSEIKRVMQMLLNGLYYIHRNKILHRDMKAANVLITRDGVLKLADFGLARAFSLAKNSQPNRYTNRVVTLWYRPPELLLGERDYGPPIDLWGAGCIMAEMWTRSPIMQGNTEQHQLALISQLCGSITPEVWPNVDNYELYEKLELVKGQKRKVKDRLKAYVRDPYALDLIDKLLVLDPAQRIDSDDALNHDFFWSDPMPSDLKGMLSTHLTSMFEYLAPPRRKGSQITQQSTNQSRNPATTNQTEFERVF
T1 sequence (O60563 whole entry partner): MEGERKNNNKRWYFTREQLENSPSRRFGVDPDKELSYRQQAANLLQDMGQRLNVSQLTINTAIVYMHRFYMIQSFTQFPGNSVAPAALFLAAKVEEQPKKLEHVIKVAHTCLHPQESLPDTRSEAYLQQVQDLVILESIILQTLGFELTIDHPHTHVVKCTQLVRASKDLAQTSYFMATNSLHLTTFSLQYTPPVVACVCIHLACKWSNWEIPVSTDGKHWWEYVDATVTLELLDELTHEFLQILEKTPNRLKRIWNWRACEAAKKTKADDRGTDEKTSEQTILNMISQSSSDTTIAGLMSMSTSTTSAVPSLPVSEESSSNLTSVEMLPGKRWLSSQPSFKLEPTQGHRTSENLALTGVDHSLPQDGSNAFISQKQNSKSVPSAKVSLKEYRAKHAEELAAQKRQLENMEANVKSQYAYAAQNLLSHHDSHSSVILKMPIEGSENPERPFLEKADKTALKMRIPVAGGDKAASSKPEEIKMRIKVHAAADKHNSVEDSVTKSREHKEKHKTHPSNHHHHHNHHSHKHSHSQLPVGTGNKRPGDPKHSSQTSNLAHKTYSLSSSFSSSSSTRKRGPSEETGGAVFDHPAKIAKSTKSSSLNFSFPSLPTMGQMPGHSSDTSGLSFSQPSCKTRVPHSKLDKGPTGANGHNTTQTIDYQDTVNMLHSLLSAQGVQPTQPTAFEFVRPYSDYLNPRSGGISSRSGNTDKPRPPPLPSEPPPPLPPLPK

Structure (SMILES)	IC50 (CDK9/CycT1) [µM]	IC50 (CDK12/CycK) [µM]
C[C@H]1CN(c2nc(NCc3nc4ccccc4[nH]3)n3ncc(Br)c3n2)CCN1C [Example 132, N-[(1H-benzimidazol-2-yl)methyl]-8-bromo-2-[(3S)-3,4-dimethylpiperazin-1-yl]pyrazolo[1,5-a][1,3,5]triazin-4-amine]	> 20	> 19.2
CC1CN(C)CCN1c1nc(NCc2nc3ccccc3[nH]2)n2ncc(Br)c2n1 (stereo not drawn) [Example 156, N-(1H-benzimidazol-2-ylmethyl)-8-bromo-2-(2,4-dimethylpiperazin-1-yl)pyrazolo[1,5-a][1,3,5]triazin-4-amine]	> 20	9.4
Fc1ccc(-c2cnn3c(NCc4nc5ccccc5[nH]4)nc(N4CCOCC4)nc23)cc1 [Example 106, N-[(1H-benzimidazol-2-yl)methyl]-8-(4-fluorophenyl)-2-(morpholin-4-yl)pyrazolo[1,5-a][1,3,5]triazin-4-amine]	> 20	> 9.99
